Reference: ChEMBL document CHEMBL1201862, “PubChem BioAssay data set” (2004)
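Tested at 5 concentrations; 48 h exposure; 96-well plates; endpoints linearly interpolated, else capped at highest concentration. Here, GI50 denotes the concentration required for 50% inhibition of growth.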 Active and inactive are the calls of the source. Rule as the data show it: active = GI50 up to about 1.1 µM and inactive = higher.

Legend:
Experiment in all cases: growth of human tumour cells (NCI), 48 h
COLO 205 = test system: COLO 205
HT-29 = test system: HT-29
IGROV-1 = test system: IGROV-1
KM12 = test system: KM12
M14 = test system: M14
NCI-H460 = test system: NCI-H460
OVCAR-3 = test system: OVCAR-3
OVCAR-5 = test system: OVCAR-5
SF-539 = test system: SF-539
SK-MEL-5 = test system: SK-MEL-5
SK-OV-3 = test system: SK-OV-3
SNB-19 = test system: SNB-19
SR = test system: SR
SW-620 = test system: SW-620
TK-10 = test system: TK-10
RPMI-8226 = test system: RPMI-8226

SMILES	GI50 (COLO 205)	GI50 (HT-29)	GI50 (IGROV-1)	GI50 (KM12)	GI50 (M14)	GI50 (NCI-H460)	GI50 (OVCAR-3)	GI50 (OVCAR-5)	GI50 (SF-539)	GI50 (SK-MEL-5)	GI50 (SK-OV-3)	GI50 (SNB-19)	GI50 (SR)	GI50 (SW-620)	GI50 (TK-10)	GI50 (RPMI-8226)
O=C(/C=C/c1ccccc1O)c1cccs1	> 100 µM (inactive)	> 100 µM (inactive)	> 100 µM (inactive)	> 100 µM (inactive)	> 100 µM (inactive)	> 100 µM (inactive)	> 100 µM (inactive)	> 100 µM (inactive)	> 100 µM (inactive)	> 100 µM (inactive)	> 100 µM (inactive)	> 100 µM (inactive)	> 100 µM (inactive)	> 100 µM (inactive)	> 100 µM (inactive)	
COc1cc([C@@H]2c3cc4c(cc3[C@@H](NC(=O)c3cccc(N)c3)C3COC(=O)[C@@H]32)OCO4)cc(OC)c1O (stereo partly drawn)	11 µM (inactive)	2.83 µM (inactive)	6.05 µM (inactive)	2.42 µM (inactive)	1.26 µM (inactive)	< 0.01 µM (active)	4.35 µM (inactive)	2.58 µM (inactive)	0.284 µM (active)	1.66 µM (inactive)	1.97 µM (inactive)	0.569 µM (active)	< 0.01 µM (active)	0.391 µM (active)	3.31 µM (inactive)	0.507 µM (active)
O=C(c1ccccc1)c1c(CC(O)c2cccnc2)n(C(=O)c2ccccc2)c2ccccc12 (stereo not drawn)	22.3 µM (inactive)	18.8 µM (inactive)	19.1 µM (inactive)	18.9 µM (inactive)	19.1 µM (inactive)	16.9 µM (inactive)	16.6 µM (inactive)	17.9 µM (inactive)	16.6 µM (inactive)	16.9 µM (inactive)		18.9 µM (inactive)	13.5 µM (inactive)	26.6 µM (inactive)	26.9 µM (inactive)	15.8 µM (inactive)
CC1NOC(=O)C1/N=N/c1ccccc1Cl (stereo not drawn)	57.7 µM (inactive)		73.1 µM (inactive)	64.7 µM (inactive)	40.6 µM (inactive)	45.1 µM (inactive)	33.8 µM (inactive)	34.8 µM (inactive)	24.5 µM (inactive)	13.8 µM (inactive)	28.3 µM (inactive)	51.1 µM (inactive)		> 100 µM (inactive)	90.4 µM (inactive)	20.4 µM (inactive)
CN(NC1OC(CO)C(O)C(O)C1O)c1ccccc1 (stereo not drawn)	> 100 µM (inactive)	> 100 µM (inactive)	> 100 µM (inactive)	> 100 µM (inactive)	> 100 µM (inactive)	> 100 µM (inactive)	> 100 µM (inactive)	> 100 µM (inactive)		> 100 µM (inactive)		> 100 µM (inactive)	> 100 µM (inactive)	> 100 µM (inactive)	> 100 µM (inactive)	> 100 µM (inactive)
O=C1c2ccccc2C(=O)N1CCn1nc(-c2ccccc2)cc(-c2ccccc2)c1=O	63.2 µM (inactive)	52.6 µM (inactive)	74.8 µM (inactive)	> 100 µM (inactive)	> 100 µM (inactive)	26.2 µM (inactive)	27.2 µM (inactive)	> 100 µM (inactive)	> 100 µM (inactive)	52.5 µM (inactive)	> 100 µM (inactive)	> 100 µM (inactive)	5.4 µM (inactive)	> 100 µM (inactive)		5.41 µM (inactive)
COc1cccc(-c2nccc3c(OCc4ccccc4)c(OC)c(OC)cc23)c1	> 100 µM (inactive)	12 µM (inactive)	> 100 µM (inactive)	> 100 µM (inactive)	> 100 µM (inactive)		> 100 µM (inactive)	> 100 µM (inactive)	> 100 µM (inactive)	8.97 µM (inactive)	> 100 µM (inactive)	> 100 µM (inactive)	6.68 µM (inactive)	> 100 µM (inactive)	> 100 µM (inactive)	7.08 µM (inactive)
O=C(O)C1Cc2[nH]c3ccccc3c2C2CCCC12 (stereo not drawn)	> 100 µM (inactive)		> 100 µM (inactive)	> 100 µM (inactive)	> 100 µM (inactive)	> 100 µM (inactive)	> 100 µM (inactive)	> 100 µM (inactive)	> 100 µM (inactive)	> 100 µM (inactive)	> 100 µM (inactive)	> 100 µM (inactive)	> 100 µM (inactive)	> 100 µM (inactive)	> 100 µM (inactive)	
Oc1cccc2nc3cc(CN4CCOCC4)c(CN4CCOCC4)cc3nc12	56.9 µM (inactive)	48.8 µM (inactive)	> 100 µM (inactive)	67 µM (inactive)	18.7 µM (inactive)	54.3 µM (inactive)	42.2 µM (inactive)	43.8 µM (inactive)	38.3 µM (inactive)	24.4 µM (inactive)	50.6 µM (inactive)	> 100 µM (inactive)	40.2 µM (inactive)	57.3 µM (inactive)	> 100 µM (inactive)	
